Reference: patent publication US20020061869A1, “Free insulin testosterone test” (priority 1998, published 2002)

Assays:
menopausal women = details: cited from earlier work
[1] = system: insulin dependent diabetes mellitus patient; assay: Example 1: intramuscular aqueous testosterone in an insulin dependent diabetic person with gangrene; assay type: in vivo, human
Protocol: C. W. was a person with a fifteen-year history of insulin dependent diabetes mellitus. They were hospitalized with gangrene of the middle finger of their right hand and was scheduled for amputation. They had already had bilateral femoral-popliteal bypass surgery for vascular insufficiency of the lower extremities. Due to anorexia, they were given an intramuscular injection of 200 mg of aqueous testosterone. Their fasting glucose fell from 212 to 159.

[2] = system: men with cluster headaches; assay: Testosterone supplementation in men with cluster headaches and low Testosterone Ratio Test; assay type: in vivo, human; details: two men; supplementation to therapeutic levels at the normal male maximum
[3] = target: T1, sex hormone-binding globulin (Homo sapiens, UniProt P04278); details: readily reversible at 37° C.; cited from earlier work
T1 sequence (P04278 30-402): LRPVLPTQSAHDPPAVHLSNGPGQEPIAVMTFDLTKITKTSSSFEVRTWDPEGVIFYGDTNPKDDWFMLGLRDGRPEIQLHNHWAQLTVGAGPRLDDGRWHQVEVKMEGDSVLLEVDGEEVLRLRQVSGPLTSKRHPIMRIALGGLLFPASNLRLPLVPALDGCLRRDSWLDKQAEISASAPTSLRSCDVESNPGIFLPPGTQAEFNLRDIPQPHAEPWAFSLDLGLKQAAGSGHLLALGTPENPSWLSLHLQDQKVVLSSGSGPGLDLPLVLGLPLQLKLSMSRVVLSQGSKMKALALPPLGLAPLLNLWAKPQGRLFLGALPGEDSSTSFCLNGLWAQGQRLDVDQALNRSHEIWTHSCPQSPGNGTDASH

[4] = system: patient with uncontrolled diabetes; assay: Example 4: testosterone subcutaneous pellets in a person with uncontrolled diabetes; assay type: in vivo, human; details: 250 to 900 mg subcutaneous pellets every six weeks over six months, before: 100 units of Humulin
Protocol: G. S. was a person with uncontrolled diabetes for ten years. Seen intermittently for ulceration of the feet, they presented with a serum glucose of 550 while on 100 units of Humulin. They refused admission to the hospital.
Over the course of six months, […] received 250 to 900 mg of […] testosterone subcutaneous pellets every six (6) weeks. […] insulin requirements were reduced 35 units while […] serum glucose remained stable at 140 to 180 mg/dl; see FIG. 3.

[5] = system: subject (tissue glucose stores); assay: Example 5: intramuscular testosterone enanthate, Hemoglobin A1C; assay type: in vivo, human; details: 9.9 in May
Protocol: Testosterone enanthate 300 mg was given to a subject intramuscularly twice weekly for four weeks, then continued with therapy of 300 mg every two weeks.

[6] = system: diabetic patient on oral hypoglycemic agents; assay: Example 3: intramuscular depo-testosterone in a person on oral hypoglycemic agents; assay type: in vivo, human; details: 250 mg intramuscularly three times weekly for four weeks
Protocol: J. G. was a person on oral hypoglycemic agents for ten years. Present dosage was 20 mg/day, Micronase 7 (Upjohn). They presented with ulcerations in four areas of their left foot, no dorsal pedis pulsation, and was scheduled for amputation but refused. Fasting glucose was 244.

[7] = system: insulin dependent diabetic patient; assay: Example 2: intramuscular depo-testosterone enanthate in an insulin dependent diabetic person; assay type: in vivo, human; details: 150 mg intramuscularly three times weekly
Protocol: A. W. was a person who has been an insulin dependent diabetic for fifteen years. […] They were scheduled for amputation. They used 24 units of Humulin insulin in the morning and 16 units at night. Their fasting blood glucose was 334. Treated with 150 mg of depo-testosterone enanthate intramuscularly, three times weekly, they became euglycemic on less than 12 units daily; see FIG. 1. However, due to the infected heel ulcer, amputation proceeded.

[8] = cited from earlier work
rats = system: rats; design: dose or concentration left out as unconfirmed; details: female rats, high dose, cited from earlier work

estrogen
reduction of cardiovascular disease mortality (menopausal women): fifty percent

C[C@]12CC[C@H]3[C@@H](CCC4=CC(=O)CC[C@@]43C)[C@@H]1CC[C@@H]2O [testosterone]
healing of gangrenous finger ([1]; amputation made unnecessary): healed completely in two months
fasting glucose ([1]; person, after intramuscular injection of 200 mg, fell from 212): 159
serum glucose outcome ([1]; repeated dosing every other day for one week): normalization of their serum glucose
insulin requirement (Humulin daily) ([1]; repeated dosing every other day for one week, decrease from 44 units): 24 units
cluster headaches/migraines [2]: complete absence of cluster headaches/migraines for two years
binding affinity K [3]: approximately 10^9 M^−1
insulin requirements reduced [4]: 35 units

CCCCCCC(=O)O[C@H]1CC[C@H]2[C@@H]3CCC4=CC(=O)CC[C@]4(C)[C@H]3CC[C@]12C [Testosterone enanthate]
Hemoglobin A1C ([5]; August, 1998, 300 mg intramuscularly twice weekly for four weeks then every two weeks): 7.2
Hemoglobin A1C ([5]; October, 1998, 300 mg intramuscularly twice weekly for four weeks then every two weeks): 5.5
use of oral hypoglycemic agents ([6]; before: Micronase 20 mg/day): discontinuing their oral agents
glycemic status ([6]; person, fasting glucose before 244): euglycemic
insulin requirement daily ([7]; before: 24 units morning and 16 units at night): less than 12 units
glycemic status ([7]; person, fasting blood glucose before 334): euglycemic

Cc1c(C)c2c(c(C)c1O)CCC(C)(COc1ccc(CC3SC(=O)NC3=O)cc1)O2 (stereo not drawn) [troglitazone]
side effects ([8]; as reported to date): abnormal liver function tests, jaundice, drop in white blood cell count and drop in hemoglobin which may persist for two years
lowering of effective blood level of co-administered drugs ([8]; oral contraceptives, terfenadine, and choleslyramine): up to 30%
sarcomatous tumors (rats; daily for 104 weeks, dose associated with excessive mortality): statistically significant increase in sarcomatous tumors
exposure relative to estimated human exposure of parent compound (rats): 47 fold
